The values below come from ChEMBL document CHEMBL1201862, “PubChem BioAssay data set” (2004).

Test [1] addresses T1, Neuropeptide Y receptor type 2 (Homo sapiens, UniProt P49146).
T1 sequence (P49146 whole entry): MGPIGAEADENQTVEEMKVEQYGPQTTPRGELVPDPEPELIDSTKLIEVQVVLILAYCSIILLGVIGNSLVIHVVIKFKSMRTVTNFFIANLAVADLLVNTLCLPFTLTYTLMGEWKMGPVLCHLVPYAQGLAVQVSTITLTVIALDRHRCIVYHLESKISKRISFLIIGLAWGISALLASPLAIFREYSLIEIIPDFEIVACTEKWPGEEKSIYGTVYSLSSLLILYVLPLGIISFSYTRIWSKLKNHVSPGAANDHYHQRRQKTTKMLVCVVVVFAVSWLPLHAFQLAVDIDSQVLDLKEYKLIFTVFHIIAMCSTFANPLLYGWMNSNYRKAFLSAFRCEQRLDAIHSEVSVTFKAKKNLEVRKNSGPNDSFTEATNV
Type of test: functional, cell-based.

The target of test [2] is T2, Neuropeptide Y receptor type 1 (Homo sapiens, UniProt P25929).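 Also: HEK293 cells with a CNG channel challenged with NPY then isoproterenol; potency as antagonist that reverses NPY suppression of cAMP signal.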
T2 sequence (P25929 whole entry): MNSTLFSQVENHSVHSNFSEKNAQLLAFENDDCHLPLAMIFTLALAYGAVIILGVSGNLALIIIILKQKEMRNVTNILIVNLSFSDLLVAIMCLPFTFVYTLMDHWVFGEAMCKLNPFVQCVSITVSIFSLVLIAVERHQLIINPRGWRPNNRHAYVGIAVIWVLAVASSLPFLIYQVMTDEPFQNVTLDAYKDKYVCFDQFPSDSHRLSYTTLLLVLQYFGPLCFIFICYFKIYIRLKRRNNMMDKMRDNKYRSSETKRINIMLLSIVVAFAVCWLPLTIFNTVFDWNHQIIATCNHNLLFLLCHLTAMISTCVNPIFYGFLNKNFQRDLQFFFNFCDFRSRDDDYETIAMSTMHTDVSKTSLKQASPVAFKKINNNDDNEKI
Type of test: functional.

A further test concerns HT-1080. In words: cytotoxicity in HT1080 fibrosarcoma cells, cell-based, fluorescence readout (AID 620). It is filed as functional. The note with it: Homo sapiens.
Test [3] deals with Luciferin 4-monooxygenase (Photinus pyralis, UniProt P08659). The test is described as follows: Counter Screen for Luciferase-based Assay Positives. [Related pubchem assays: 620, 618, 411 ].
Test [4] concerns the target T3, Rac GTPase-activating protein 1 (Homo sapiens, UniProt Q9H0H5).
T3 sequence (Q9H0H5 whole entry): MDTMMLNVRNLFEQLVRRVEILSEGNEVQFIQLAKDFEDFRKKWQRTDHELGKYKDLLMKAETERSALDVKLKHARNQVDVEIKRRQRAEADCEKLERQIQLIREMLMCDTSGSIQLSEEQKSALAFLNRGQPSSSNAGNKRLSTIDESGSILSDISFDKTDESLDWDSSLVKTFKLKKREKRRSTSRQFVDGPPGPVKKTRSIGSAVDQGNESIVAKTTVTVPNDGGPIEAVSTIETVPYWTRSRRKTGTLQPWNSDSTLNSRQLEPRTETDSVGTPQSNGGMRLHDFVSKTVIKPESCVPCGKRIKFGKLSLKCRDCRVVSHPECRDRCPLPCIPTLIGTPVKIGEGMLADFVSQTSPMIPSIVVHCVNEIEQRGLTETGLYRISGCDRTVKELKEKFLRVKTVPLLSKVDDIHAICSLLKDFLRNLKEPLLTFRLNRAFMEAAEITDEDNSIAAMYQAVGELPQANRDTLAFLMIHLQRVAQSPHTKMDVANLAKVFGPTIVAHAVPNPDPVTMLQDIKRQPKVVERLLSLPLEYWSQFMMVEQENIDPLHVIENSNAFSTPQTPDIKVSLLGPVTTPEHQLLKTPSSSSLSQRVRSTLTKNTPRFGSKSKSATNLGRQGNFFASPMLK
In words: MgcRacGAP GTPase-activating activity inhibitors, confirmation, biochemical, ADP Hunter fluorescence, primary and confirmatory (AID 624330). Type of test: functional.

Test [5] in a line: P. falciparum late gametocyte killing, dose response, luminescence (AID 1117278).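 Also: gametocytes exposed to compound for 24 hours.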 Type of test: functional, cell-based.
Test [6] is described as follows: Jurkat T cell cytotoxicity, dose response, cytotoxicity control for P. falciparum gametocyte viability project, luminescence (AID 1117277).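 Also: potency reflects loss of cellular ATP meaning fewer viable cells.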 It is filed as functional, cell-based.
The target of a further test is T4, Estrogen receptor (Homo sapiens, UniProt P03372).
T4 sequence (P03372 whole entry): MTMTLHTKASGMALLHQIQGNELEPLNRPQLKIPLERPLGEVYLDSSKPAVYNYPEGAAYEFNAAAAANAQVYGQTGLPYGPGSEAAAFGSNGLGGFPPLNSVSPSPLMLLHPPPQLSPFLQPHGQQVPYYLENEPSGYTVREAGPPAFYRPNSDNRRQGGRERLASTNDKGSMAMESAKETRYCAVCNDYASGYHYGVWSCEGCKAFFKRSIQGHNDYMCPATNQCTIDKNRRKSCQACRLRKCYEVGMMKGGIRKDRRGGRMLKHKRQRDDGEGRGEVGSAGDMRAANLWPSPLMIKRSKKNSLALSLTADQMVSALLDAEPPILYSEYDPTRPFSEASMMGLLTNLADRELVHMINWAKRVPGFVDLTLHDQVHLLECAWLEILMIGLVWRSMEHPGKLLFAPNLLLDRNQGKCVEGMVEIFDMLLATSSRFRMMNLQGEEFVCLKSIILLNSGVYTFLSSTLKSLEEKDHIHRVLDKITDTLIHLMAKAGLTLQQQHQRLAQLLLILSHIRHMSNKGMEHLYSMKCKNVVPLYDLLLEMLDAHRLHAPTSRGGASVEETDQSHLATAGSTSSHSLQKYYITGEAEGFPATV

For test [7], the target named is T5, Estrogen receptor beta (Homo sapiens, UniProt Q92731). In words: ERβ–SRC-3 coactivator interaction inhibitors, confirmation, orthogonal assay, biochemical, ELISA, streptavidin-HRP readout (AID 1060).
The target in test [8] is T5, Estrogen receptor beta.
A further test deals with HEK293. In words: inhibitors of LMP1-driven NF-kB reporter, dose response, cell-based, HEK293, luciferase, cherry-pick (AID 588343). Type of test: functional. The note with it: Homo sapiens.
In test [9] the target is T6, Calpain-2 catalytic subunit (Sus scrofa, UniProt P43367).
T6 sequence (P43367 whole entry): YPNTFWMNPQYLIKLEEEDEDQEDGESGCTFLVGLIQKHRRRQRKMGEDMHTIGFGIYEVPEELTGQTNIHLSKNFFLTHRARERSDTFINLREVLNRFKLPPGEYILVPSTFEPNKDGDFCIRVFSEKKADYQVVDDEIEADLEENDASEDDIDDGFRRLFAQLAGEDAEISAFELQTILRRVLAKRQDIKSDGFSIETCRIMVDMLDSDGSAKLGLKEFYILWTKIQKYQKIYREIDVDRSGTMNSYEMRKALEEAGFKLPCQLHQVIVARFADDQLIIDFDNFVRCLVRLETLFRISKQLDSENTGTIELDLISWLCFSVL
The test is described as follows: pig calpain II inhibitor potency, dose response, biochemical, fluorogenic peptide substrate (AID 1420). It is filed as functional.

A further test addresses Major prion protein (Homo sapiens, UniProt P04156). It is filed as functional, cell-based.
The target in test [10] is T7, Mannose-6-phosphate isomerase (Homo sapiens, UniProt P34949).
T7 sequence (P34949 whole entry): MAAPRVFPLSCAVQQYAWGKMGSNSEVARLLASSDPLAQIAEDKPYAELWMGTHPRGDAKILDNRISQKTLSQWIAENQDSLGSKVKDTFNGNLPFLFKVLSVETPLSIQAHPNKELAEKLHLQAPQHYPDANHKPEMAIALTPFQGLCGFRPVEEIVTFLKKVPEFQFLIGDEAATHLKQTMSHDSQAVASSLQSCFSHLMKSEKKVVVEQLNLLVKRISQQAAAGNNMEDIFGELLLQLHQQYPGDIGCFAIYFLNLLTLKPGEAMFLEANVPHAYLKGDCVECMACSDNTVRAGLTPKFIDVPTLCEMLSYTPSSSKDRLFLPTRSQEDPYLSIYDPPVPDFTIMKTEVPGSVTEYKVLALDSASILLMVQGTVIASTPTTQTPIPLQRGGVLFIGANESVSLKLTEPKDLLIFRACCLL
The test is described as follows: human PMI inhibitors, high substrate, primary screen, biochemical, fluorescence intensity, high mannose 6-phosphate (AID 1220).

The test system of the next test is Vero. The test is described as follows: host cell cytotoxicity of antiviral hits, dose response, cytotoxicity control for West Nile virus antiviral project, secondary assay (AID 1650). It is filed as functional. Conditions: Chlorocebus sabaeus.
Test [11] addresses T8, DNA repair protein RAD52 homolog (Homo sapiens, UniProt P43351).
T8 sequence (P43351 whole entry): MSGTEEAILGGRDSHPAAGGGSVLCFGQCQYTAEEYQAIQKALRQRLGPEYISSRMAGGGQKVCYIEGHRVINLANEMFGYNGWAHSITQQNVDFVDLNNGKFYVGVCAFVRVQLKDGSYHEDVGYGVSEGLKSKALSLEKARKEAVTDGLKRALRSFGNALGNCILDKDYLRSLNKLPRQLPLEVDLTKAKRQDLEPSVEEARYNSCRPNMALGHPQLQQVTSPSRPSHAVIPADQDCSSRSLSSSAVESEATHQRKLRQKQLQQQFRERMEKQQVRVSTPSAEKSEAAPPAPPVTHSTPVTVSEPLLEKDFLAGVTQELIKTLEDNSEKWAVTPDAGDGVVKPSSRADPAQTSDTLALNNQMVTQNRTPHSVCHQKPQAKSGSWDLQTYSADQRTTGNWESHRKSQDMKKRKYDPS
It is filed as functional, biochemical.

Molecules are shown by their SMILES. Where “and” joins values, the source holds several entries; their conditions need not be identical. Equal values may be shown once. Calls of active or inactive are those of the source.

Take `CCCCOc1nc2ccccc2c(=O)n1-c1ccccc1`: the results for the IC50 in test [1] and in [2] were 8.15 µM (active) and 13.2 µM (not active), respectively.
With `CNc1nnc(-c2ccc(N(C)C)cc2)s1`, the EC50 is > 50 µM (not active) in the test with HT-1080 and 2.54 µM (active) in test [3]. In addition, in test [4], the IC50 was 99.3 µM (active).
On to `Cc1ccc(NC(=O)C(=O)NCCOc2ccc(Cl)cc2)c(C)c1`, for which the IC50 in test [1] is 7.41 µM (active); in [2], 7.39 µM (active).
With `COc1ccccc1NC(=O)c1ccccc1NC(=O)c1cc(Cl)ccc1NC(=O)c1ccco1`, the IC50 in [5] is > 109 µM (inactive); in test [6], > 83.3 µM (inactive); at Estrogen receptor it was 12.5 µM (active).
Take `CN1C(=O)CSc2ccc(NC(=O)N3CCC(N4CCCCC4)CC3)cc21`: the IC50 at Estrogen receptor beta [7] was < 77 µM (not active) and < 23 nM (not active); at Estrogen receptor, 11.8 µM (active); on Estrogen receptor beta [8], 6.24 µM (active).
Regarding `O=C(NC1=NCCS1)c1cc2ccccc2o1`, the AC50 in the test with HEK293 was 3.65 µM (active). Moreover, the EC50 is > 50 µM (not active) with HT-1080 and 59.1 µM (active) in [3].
With `c1ccc(OCc2nnc3sc(C4COc5ccccc5O4)nn23)cc1` (centres undefined), the IC50 is < 23 nM (not active) on Estrogen receptor beta [7], 9.55 µM (active) on Estrogen receptor and > 50 µM (not active) against Estrogen receptor beta [8].
Turning to `c1ccc(-c2noc(-c3cccs3)n2)nc1`, the results for the EC50 (in the test with HT-1080; in [3]) were > 50 µM (not active) and > 100 µM (not active), respectively.
As for `Cc1nc(-c2ccccc2)sc1C(=O)CSc1ccc(Cl)cc1`, the IC50 in [9] is 11.7 µM (not active); in test [1] it was 6.99 µM (active); in test [2] it was 5.4 µM (active).
On to `CCOC(=O)c1c(-c2ccc(C)s2)csc1N`, for which the IC50 on Major prion protein was 104 µM (inactive); in the test “cells”, > 138 µM (inactive); in test [10] it was 35.4 µM (active).
In the case of `CCN(CC)CCNC(=O)c1cc2c(-c3cccc(OC)c3)nn(C)c2s1`, the CC50 in the test with Vero was > 100 µM (active). Besides, in test [11], the AC50 is 3.79 µM (active).
